{
  "source": "patent US4748180A",
  "about": "“β-carboline-3-carboxylic acid derivatives, and their use as psychotropic and anti-epileptic agents” (Schering Aktiengesellschaft, priority 1984, dated 1988)",
  "key": {"benzodiazepine receptors [1]": {"target": "benzodiazepine receptors", "test": "in vitro inhibition of 3H-flunitrazepam binding (displacement test, brain membrane suspension)", "parameters": "unit not given here", "details": "3H-flunitrazepam 1.0 nM, 0° C., rat forebrain, pH 7.1"}, "benzodiazepine receptors [2]": {"test_system": "benzodiazepine receptors", "test": "in vivo inhibition of 3H-flunitrazepam binding (forebrain membranes of injected mice)", "details": "usually subcutaneously, 3H-flunitrazepam i.v. 15 minutes later, killed after a further 20 minutes", "description": "The ED50 value represents the dose (mg/kg) of a test substance which causes the specific binding of flunitrazepam to benzodiazepine receptors in a living brain to be reduced to 50% of the control value. Such an in vivo test is carried out as follows:\nGroups of mice are injected with the test substance of different doses and usually subcutaneously. 15 minutes later ^3 H-flunitrazepam is administered intravenously to the mice, and after a further 20 minutes, the mice are killed. Their forebrain membranes are removed and the radioactivity of these forebrain membranes is measured by scintillation counting. The ED50 value is determined from dose-response curves."}},
  "data": [
    {"smiles": "CCOC(=O)c1ncc2[nH]c3cccc(OC(C)C)c3c2c1COC", "values": [
      {"measurement": "Inhibition of H^3flunitrazepam binding in vitro IC50", "setting": "benzodiazepine receptors [1]", "result": 0.6},
      {"measurement": "Inhibition of H^3flunitrazepam binding in vivo ED50", "setting": "benzodiazepine receptors [2]", "result": 1.4, "unit": "mg/kg"}
    ]},
    {"smiles": "CCOC(=O)c1ncc2[nH]c3cccc(OC4CCC4)c3c2c1COC", "values": [
      {"measurement": "Inhibition of H^3flunitrazepam binding in vitro IC50", "setting": "benzodiazepine receptors [1]", "result": 0.2},
      {"measurement": "Inhibition of H^3flunitrazepam binding in vivo ED50", "setting": "benzodiazepine receptors [2]", "result": 0.5, "unit": "mg/kg"}
    ]},
    {"smiles": "CCOCc1cccc2[nH]c3cnc(C(=O)OCC)c(COC)c3c12", "note": "[Example 1, 5-ethoxymethyl-4-methoxymethyl-β-carboline-3-carboxylic acid ethylester]", "values": [
      {"measurement": "Inhibition of H^3flunitrazepam binding in vitro IC50", "setting": "benzodiazepine receptors [1]", "result": 0.4},
      {"measurement": "Inhibition of H^3flunitrazepam binding in vivo ED50", "setting": "benzodiazepine receptors [2]", "result": 2.4, "unit": "mg/kg"}
    ]}
  ]
}
